Where two headings read alike, the source gives them in different places.
Tests used:
[1] = system: Human prostate PC3 tumor cells; test: Drug treatment and extracellular bFGF (ELISA), LDH release, cell number; format: cell-based; conditions: for Extracellular LDH, % of control / Extracellular bFGF, % of control / Extracellular concentration bFGF / bFGF:LDH ratio: 72 hours
Method: The experimental conditions are described briefly below. […] The remaining cell number at the end of treatment was counted using a Coulter counter. The extracellular bFGF concentration was measured using ELISA. The release of lactate dehydrogenase (LDH) into the extracellular culture medium is indicative of cell death and gives a measure of the release of cellular content into the culture medium. If the increase in extracellular bFGF level is due to the release of bFGF upon cell death and lysis, the increase in bFGF will be accompanied by an increase in LDH in the same extent. This would result in an higher bFGF level and a constant bFGF-to-LDH ratio. On the other hand, an increase in extracellular bFGF due to an increase in bFGF production and release of bFGF from cells by processes other than cell lysis will result in an higher bFGF level and an higher bFGF-to-LDH ratio.

[2] = system: Human prostate PC3 tumor cells; test: aFGF/bFGF-induced resistance and reversal by suramin, sulforhodamine B assay; format: cell-based; conditions: for Resistance, Folds, aFGF 0.3 ng/ml + bFGF 1 ng/ml / Resistance, Folds, aFGF 1 ng/ml + bFGF 3 ng/ml: no suramin, relative to control
Method: The experimental conditions are described briefly below. […] Cell number was measured using the sulforhodamine B assay which measures the total protein concentration. […] The FGF-induced resistance was dependent on the FGF concentrations, with a higher resistance at higher FGF concentrations.

[3] = Homo sapiens, read-out: IC50, Control (drug treatment only, without FGF treatment), No suramin, drug 96 hours
[4] = Homo sapiens, read-out: IC50, aFGF 0.3 ng/ml + bFGF 1 ng/ml, No suramin, FGF pretreatment 96 hours, drug 96 hours
[5] = Homo sapiens, read-out: IC50, aFGF 1 ng/ml + bFGF 3 ng/ml, No suramin, FGF pretreatment 96 hours, drug 96 hours
[6] = read-out: IC50, Control (without FGF treatment), Suramin, 15 μM, drug 96 hours with 15 μM suramin
[7] = read-out: IC50, aFGF 0.3 ng/ml + bFGF 1 ng/ml, With suramin, FGF pretreatment 96 hours, drug 96 hours with 15 micromolar suramin
[8] = read-out: IC50, aFGF 1 ng/ml + bFGF 3 ng/ml, With suramin, FGF pretreatment 96 hours, drug 96 hours with 15 micromolar suramin

SMILES	Remaining cell number at 72 hours (% of control) ([1]; drug concentration 2 NM) [%]	Remaining cell number at 72 hours × 10^6 ([1]; drug concentration 2 NM)	Extracellular LDH, % of control ([1]; drug concentration 2 NM)	Extracellular bFGF, % of control ([1]; drug concentration 2 NM)	Extracellular concentration bFGF ([1]; drug concentration 2 NM) [pg/mL]	bFGF:LDH ratio ([1]; drug concentration 2 NM)	IC50 [2, 3] [nM]	IC50 [2, 4] [nM]	IC50 [2, 5] [nM]	Resistance, Folds, aFGF 0.3 ng/ml + bFGF 1 ng/ml [2] [Folds]	Resistance, Folds, aFGF 1 ng/ml + bFGF 3 ng/ml [2] [Folds]	IC50 [2, 6] [nM]	IC50 [2, 7] [nM]	IC50 [2, 8] [nM]	also measured
CC[C@@]1(O)C(=O)OCc2c1cc1n(c2=O)Cc2cc3ccccc3nc2-1 [Camptothecin]	83	2.0 × 10^6	137 % of control	145 % of control	9.08	1.06	5.03	11.4	17.2	2.26	3.42	4.8	5.4	5.78	Remaining cell number at 72 hours (% of control) ([1]; drug concentration 6 NM): 50%; Remaining cell number at 72 hours × 10^6 ([1]; drug concentration 6 NM): 1.2 × 10^6; Extracellular LDH, % of control ([1]; drug concentration 6 NM): 182 % of control; Extracellular bFGF, % of control ([1]; drug concentration 6 NM): 221 % of control; Extracellular concentration bFGF ([1]; drug concentration 6 NM): 13.9 pg/mL; bFGF:LDH ratio ([1]; drug concentration 6 NM): 1.22; Remaining cell number at 72 hours (% of control) ([1]; drug concentration 20 NM): 21%; Remaining cell number at 72 hours × 10^6 ([1]; drug concentration 20 NM): 0.5 × 10^6; Extracellular LDH, % of control ([1]; drug concentration 20 NM): 219 % of control; Extracellular bFGF, % of control ([1]; drug concentration 20 NM): 279 % of control; Extracellular concentration bFGF ([1]; drug concentration 20 NM): 17.5 pg/mL; bFGF:LDH ratio ([1]; drug concentration 20 NM): 1.28
CC[C@]1(O)C[C@@H]2CN(CCc3c([nH]c4ccccc34)[C@@](C(=O)OC)(c3cc4c(cc3OC)N(C)[C@H]3[C@@](O)(C(=O)OC)[C@H](OC(C)=O)[C@]5(CC)C=CCN6CC[C@]43[C@@H]65)C2)C1 [Vinblastine]	17	0.4 × 10^6	513 % of control	2046 % of control	179	3.99	0.33	0.45	0.78	1.36	2.36	0.4	0.42	0.35	Remaining cell number at 72 hours (% of control) ([1]; drug concentration 0.5 NM): 74%; Remaining cell number at 72 hours × 10^6 ([1]; drug concentration 0.5 NM): 1.7 × 10^6; Extracellular LDH, % of control ([1]; drug concentration 0.5 NM): 263 % of control; Extracellular bFGF, % of control ([1]; drug concentration 0.5 NM): 675 % of control; Extracellular concentration bFGF ([1]; drug concentration 0.5 NM): 59.1 pg/mL; bFGF:LDH ratio ([1]; drug concentration 0.5 NM): 2.57; Remaining cell number at 72 hours (% of control) ([1]; drug concentration 1 NM): 43%; Remaining cell number at 72 hours × 10^6 ([1]; drug concentration 1 NM): 1.0 × 10^6; Extracellular LDH, % of control ([1]; drug concentration 1 NM): 326 % of control; Extracellular bFGF, % of control ([1]; drug concentration 1 NM): 1073 % of control; Extracellular concentration bFGF ([1]; drug concentration 1 NM): 94.0 pg/mL; bFGF:LDH ratio ([1]; drug concentration 1 NM): 3.29

— patent US20040010001A1, “Methods and compositions for modulating cell proliferation and cell death” (priority 1999, published 2004)
